Reference: US8962257B2, “Methods for diagnosing heart failure and other cardiac diseases” (The Trustees of the University of Pennsylvania, priority 2010, dated 2015)

Tested on: NRG-1β
Assay: Serial plasma NRG-1β by indirect sandwich ELISA in Her-2+ breast cancer patients receiving doxorubicin and trastuzumab
Type: in vivo, human
Settings: with Doxorubicin exposure
Procedure: NRG-1β is measured from frozen, previously unthawed serum or plasma samples that had been stored at −80° C. until time of assay. An indirect sandwich enzyme-linked immunosorbent assay (ELISA) was used (NRG1-β1 Duoset ELISA development system from R&D Systems, Minneapolis, Minn.). Assay technology was adapted for human samples, and all measurements were performed at Vanderbilt University. […] Following incubation, a biotinylated goat anti-human NRG1-β1 detection antibody was added to each well, and a streptavidin-HRP system was used for detection. […] Extensive validation was performed and there was no cross-reactivity with NRG-1α isoform or epidermal growth factor.
Data were obtained at enrollment and every 3 months during anti-cancer therapy.
NRG-1β plasma level was measured serially every 3 months during chemotherapy treatment.

With `COc1cccc2c1C(=O)c1c(O)c3c(c(O)c1C2=O)C[C@@](O)(C(=O)CO)C[C@@H]3O[C@H]1C[C@H](N)[C@H](O)[C@H](C)O1` [Doxorubicin, doxorubicin] the “change in NRG-1β over time” value was “significant decrease” and the “change in NRG-1β over time” value (listed as doxorubicin) was “significant decline”.
